From US20100311756A1, “METHODS FOR DELAYING THE PROGRESSION OF AT LEAST ONE OF CARDIAC HYPERTROPHY, CARDIAC REMODELING OR LEFT VENTRICULAR FUNCTION OR THE ONSET OF HEART FAILURE IN SUBJECTS IN NEED OF TREATMENT THEREOF” (TAKEDA PHARMACEUTICALS NORTH AMERICA, INC., priority 2009, published 2010)

Assays:
[1] = system: post-myocardial infarction rabbits; test: Chronic xanthine oxidase inhibition following myocardial infarction (permanent coronary artery ligation) in rabbits; format: in vivo; details: for Heart Weight / Heart/Body Weight Ratio: Day 49; for EDV / EF (ejection fraction) / LVIDd / LVIDs / LVPWd / LVPWs / SF (shortening fraction): baseline (Day 0, pre-surgery, before dosing); for Ejection fraction (percent change from baseline) versus vehicle/control / Shortening fraction (percent change from baseline) versus vehicle/control: delayed treatment (from Day 22)
Source text: • Animals Male New Zealand white rabbits (1-2 kg; Clerco Research Farms, Cincinnati, Ohio, USA) were housed in separate cages in an environmentally controlled facility. The animals were subjected to circadian light-dark cycles, maintained on standard rabbit chow (2030C, Harlan Teklad, Madison, Wis., USA) and provided water ad libitum.
The procedures used in this study were reviewed and approved by the Institutional Animal Care and Use Committee (IACUC) of QTest Labs for compliance with regulations and current accepted practices. All applicable sections of the Final Rules of the Animal Welfare Act regulations (Section 9 CFR) and the Public Health Service Policy on Humane Care and Use of Laboratory Animals (OPRR, NIH, 1986) were followed. At the end of the study, all animals were humanely euthanized in accordance with accepted guidelines of the American Veterinary Medical Association (See, American Veterinary Medicine Association (AVMA), 2000 Report of the AVMA Panel on Euthanasia, The Journal of the American Veterinary Medical Association, 218(5):669-696 (2001)). • Drugs Febuxostat and allopurinol (Sigma-Aldrich, St. Louis, Mo., USA) were each formulated as a suspension in 0.5% methylcellulose (Sigma-Aldrich, St. Louis, Mo.) as the vehicle. […] Allopurinol was given orally at 60 mg/kg. […] The rabbits were anesthetized with an intramuscular injection of ketamine (35 mg/kg)/xylazine (5 mg/kg) and pre-surgery enrofloxacin (12 mg/kg). Isoflurane (1-2%) was given during the surgery as required to maintain a deep level of anesthesia and the animals were allowed to breathe 100% oxygen. A limb lead electrocardiogram (ECG) was obtained to monitor sinus rhythm, heart rate, and J-point deviation. The rabbit was placed in dorsal recumbency, and the sternum was exposed by blunt dissection and then incised with scissors. […] Myocardial ischemia was confirmed by regional cyanosis of the myocardial surface and ST-segment elevation on the ECG. The sternum was closed, leaving the pericardial sac as it was. The muscle layers, subcutaneous layer and skin were then closed. Ketofen (1 mg/kg) and buprenorphine (0.03 mg/kg/8 hour) were administered subcutaneously, and the rabbits were placed on a heating pad, covered with a towel, and observed continuously until awake. Post-operative medications given subcutaneously to the rabbits included enrofloxacin (12 mg/kg, b.i.d.), ketofen (0.03 mg/kg, b.i.d.), and buprenorphine ([…], t.i.d. to q.i.d.) for 1 to 3 days as needed. • Experimental Procedures Rabbits were surgically altered (Day 0) to produce MI-induced heart failure and assigned to one of four treatment groups: the vehicle/control group (n=8) received vehicle for 49 consecutive days (7 weeks), the febuxostat/early treatment group (n=8) received febuxostat (10 mg/kg) for 49 consecutive days (7 weeks), the febuxostat/delayed treatment group (n=7) received vehicle for 21 consecutive days (3 weeks) and then febuxostat (10 mg/kg) starting on Day 22 (3 weeks post-surgery) for 28 consecutive days (4 weeks), and the allopurinol/delayed treatment group (n=8) received vehicle for 21 consecutive days and then allopurinol (60 mg/kg) starting on Day 22 (3 weeks post-surgery) for 28 consecutive days (4 weeks). All treatments were started on Day 1 (i.e. the day after surgery) and administered by oral gavage (2 mL/kg). The animals were fasted overnight prior to each day of dosing.
On Day 0 (baseline, pre-surgery), and on Days 21 (end of week 3) and 49 (end of week 7) at approximately one hour after dosing, the rabbits were sling restrained for ECG acquisition.

[2] = Schumacher, Expert Opin. Invest. Drugs 2005; cited from earlier work
[3] = system: enzymes involved in purine and pyrimidine metabolism; details: Takano et al., Life Sciences 2005; cited from earlier work
[4] = delayed treatment: vehicle 21 days then oral FBS 10 mg/kg/day or AL 60 mg/kg/day for 28 days
[5] = early treatment: FBS 10 mg/kg/day oral for 49 days from 1 day after coronary occlusion
[6] = early treatment from one day after ligation, Day 21, still apparent on Day 49

Row | Compound | Heart Weight [1, 4] | Heart/Body Weight Ratio [1, 4] | EDV ([1]; delayed treatment group) | EF (ejection fraction) ([1]; delayed treatment group) | LVIDd ([1]; delayed treatment group) | LVIDs ([1]; delayed treatment group) | LVPWd ([1]; delayed treatment group) | LVPWs ([1]; delayed treatment group) | SF (shortening fraction) ([1]; delayed treatment group) | Ejection fraction (percent change from baseline) versus vehicle/control ([1]; Days 21 and 49) | Shortening fraction (percent change from baseline) versus vehicle/control ([1]; Days 21 and 49) | Route of elimination [2] | Cross-inhibition on other purine and pyrimidine metabolism enzymes such as purine nucleoside phosphorylase and orotidine-5′-monophosphate decarboxylase [3] | other results
1 | Oc1ncnc2[nH]ncc12 [allopurinol] | 6.59 ± 0.30 g | 0.24 ± 0.01% | 2.21 ± 0.21 mL | 74 ± 1.9% | 1.29 ± 0.05 cm | 0.77 ± 0.03 cm | 0.31 ± 0.02 cm | 0.46 ± 0.02 cm | 40 ± 1.7% | not significantly different | not significantly different | mainly cleared by the kidneys | cross-inhibition | 
2 | Cc1nc(-c2ccc(OCC(C)C)c(C#N)c2)sc1C(=O)O [febuxostat, 2-[3-cyano-4-(2-methylpropoxy)phenyl]-4-methylthiazole-5-carboxylic acid] | 6.65 ± 0.27 g | 0.28 ± 0.01% | 1.42 ± 0.13 mL | 71 ± 1.7% | 1.11 ± 0.04 cm | 0.70 ± 0.02 cm | 0.32 ± 0.02 cm | 0.44 ± 0.02 cm | 36 ± 1.2% | not significantly different | not significantly different | hepatic metabolism | avoids the cross-inhibition | Heart Weight [1, 5]: small trend toward a lower; Heart/Body Weight Ratio [1, 5]: 0.25 ± 0.01%; Heart Weight ([1]; early treatment: FBS 10 mg/kg/day oral for 49 days from 1 day after coronary occlusion, listed as FBS): 6.38 ± 0.19 g; EDV ([1]; early treatment group): 1.94 ± 0.25 mL; EF (ejection fraction) ([1]; early treatment group): 68 ± 1.8 %; LVIDd ([1]; early treatment group): 1.25 ± 0.04 cm; LVIDs ([1]; early treatment group): 0.82 ± 0.03 cm; LVPWd ([1]; early treatment group): 0.26 ± 0.02 cm; LVPWs ([1]; early treatment group): 0.49 ± 0.02 cm; SF (shortening fraction) ([1]; early treatment group): 34 ± 1.4 %; Reduction of ejection fraction (percent change from baseline) versus vehicle/control [1, 6]: significantly lessened; Reduction of shortening fraction (percent change from baseline) versus vehicle/control [1, 6]: significantly lessened; Increase in LVIDd versus vehicle/control ([1]; early treatment, Day 21): less of an increase; Increase in end diastolic volume versus vehicle/control ([1]; early treatment, Day 21): less of an increase; Increase in LVIDs versus vehicle/control ([1]; early treatment, Day 21, reaching statistical significance): less of an increase; Left ventricular posterior wall dimension during diastole, change from baseline ([1]; early treatment, Days 21 and 49): no reduction
